{
  "source": "patent US20250114374A1",
  "about": "“BCL-2 INHIBITORS” (Newave Pharmaceutical Inc., priority 2021, published 2025)",
  "system": "RS4; 11 with G101V mutation",
  "assay": "In vitro anti-proliferation assay (ATPlite luminescence) in BCL-2-dependent ALL cell line RS4;11 with G101V mutation",
  "type": "cell-based",
  "conditions": "cellular anti-proliferative IC50, about 72 hours, medium with 10% FBS, ATPlite; read-out: RS411-G101V IC50",
  "in_short": "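RS4;11 G101V cells at about 1×10^4 per well were exposed to a range of compound concentrations for about 72 h in medium with 10% FBS. Cellular ATP was measured by ATPlite luminescence after lysis, and IC50 was derived from the dose-response.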",
  "data": [
    {"compound": "COc1nccc(CN2CCN(C3CC4(CCN(c5ccc(C(=O)NS(=O)(=O)c6ccc(NCC7CCC(C)(O)CC7)c([N+](=O)[O-])c6)c(N6c7cc8cc[nH]c8nc7O[C@H]7COCC[C@@H]76)c5)CC4)C3)[C@@H](c3ccccc3OC(C)C)C2)c1OC", "note": "(stereo partly drawn) [Example 150, 4-(2-((S)-4-((2,3-dimethoxypyridin-4-yl)methyl)-2-(2-isopropoxyphenyl)piperazin-1-yl)-7-azaspiro[3.5]nonan-7-yl)-N-((4-((((1r,4r)-4-hydroxy-4-methylcyclohexyl)methyl)amino)-3-nitrophenyl)sulfonyl)-2-((5aS,9aR)-6,7,9,9a-tetrahydro-1H-pyrano[3,4-b]pyrrolo[3′,2′:5,6]pyrido[3,2-e][1,4]oxazin-5(5aH)-yl)benzamide]", "values": [
      {"measurement": "IC50", "result": 14.1, "unit": "nM"}
    ]},
    {"compound": "COc1c(CN2CCN(C3CC4(CCN(c5ccc(C(=O)NS(=O)(=O)c6ccc(NCC7CCC(C)(O)CC7)c([N+](=O)[O-])c6)c(N6c7cc8cc[nH]c8nc7O[C@H]7COCC[C@@H]76)c5)CC4)C3)[C@@H](c3ccccc3OC(C)C)C2)ccnc1N1CCOCC1", "note": "(stereo partly drawn) [Example 151, N-((4-((((1r,4r)-4-hydroxy-4-methylcyclohexyl)methyl)amino)-3-nitrophenyl)sulfonyl)-4-(2-((S)-2-(2-isopropoxyphenyl)-4-((3-methoxy-2-morpholinopyridin-4-yl)methyl)piperazin-1-yl)-7-azaspiro[3.5]nonan-7-yl)-2-((5aS,9aR)-6,7,9,9a-tetrahydro-1H-pyrano[3,4-b]pyrrolo[3′,2′:5,6]pyrido[3,2-e][1,4]oxazin-5(5aH)-yl)benzamide]", "values": [
      {"measurement": "IC50", "result": 19.8, "unit": "nM"}
    ]},
    {"compound": "CC(C)Oc1ccccc1[C@H]1CN(Cc2ccc3c(c2)OCCO3)CCN1C1CC2(CCN(c3ccc(C(=O)NS(=O)(=O)c4ccc(NCC5CCC(C)(O)CC5)c([N+](=O)[O-])c4)c(N4c5cc6cc[nH]c6nc5O[C@H]5COCC[C@@H]54)c3)CC2)C1", "note": "(stereo partly drawn) [Example 152, 4-(2-((S)-4-((2,3-dihydrobenzo[b][1,4]dioxin-6-yl)methyl)-2-(2-isopropoxyphenyl)piperazin-1-yl)-7-azaspiro[3.5]nonan-7-yl)-N-((4-((((1r,4r)-4-hydroxy-4-methylcyclohexyl)methyl)amino)-3-nitrophenyl)sulfonyl)-2-((5aS,9aR)-6,7,9,9a-tetrahydro-1H-pyrano[3,4-b]pyrrolo[3′,2′:5,6]pyrido[3,2-e][1,4]oxazin-5(5aH)-yl)benzamide]", "values": [
      {"measurement": "IC50", "result": 28.3, "unit": "nM"}
    ]},
    {"compound": "CC(C)Oc1ccccc1[C@H]1CN(Cc2ccc(N3CCOC[C@H]3C)c(F)c2)CCN1C1CC2(CCN(c3ccc(C(=O)NS(=O)(=O)c4ccc(NCC5CCC(C)(O)CC5)c([N+](=O)[O-])c4)c(N4c5cc6cc[nH]c6nc5O[C@H]5COCC[C@@H]54)c3)CC2)C1", "note": "(stereo partly drawn) [Example 153, 2-[(3R,8S)-2,5-dioxa-9,15,17-triazatetracyclo[8.7.0.0^{3,8}.0^{12,16}]heptadeca-1(10),11,13,16-tetraen-9-yl]-4-{2-[(2S)-4-({3-fluoro-4-[(3R)-3-methylmorpholin-4-yl]phenyl}methyl)-2-(2-isopropoxyphenyl)piperazin-1-yl]-7-azaspiro[3.5]nonan-7-yl}-N-[3-nitro-4-({[(1r,4r)-4-hydroxy-4-methylcyclohexyl]methyl}amino)benzenesulfonyl]benzamide]", "values": [
      {"measurement": "IC50", "result": 47.1, "unit": "nM"}
    ]},
    {"compound": "Cc1ccccc1[C@@H]1CN(Cc2ccc(F)c(F)c2)CCN1C1CC2(CCN(c3ccc(C(=O)NS(=O)(=O)c4ccc(NCC5CCC(C)(O)CC5)c([N+](=O)[O-])c4)c(N4c5cc6cc[nH]c6nc5O[C@H]5COCC[C@@H]54)c3)CC2)C1", "note": "(stereo partly drawn) [Example 154, 4-{2-[(2R)-4-[(3,4-difluorophenyl)methyl]-2-(2-methylphenyl)piperazin-1-yl]-7-azaspiro[3.5]nonan-7-yl}-2-[(3R,8S)-2,5-dioxa-9,15,17-triazatetracyclo[8.7.0.0^{3,8}.0^{12,16}]heptadeca-1(10),11,13,16-tetraen-9-yl]-N-[3-nitro-4-({[(1r,4r)-4-hydroxy-4-methylcyclohexyl]methyl}amino)benzenesulfonyl]benzamide]", "values": [
      {"measurement": "IC50", "result": 27.6, "unit": "nM"}
    ]},
    {"compound": "Cc1ccccc1[C@@H]1CN(Cc2ccc(N3CCOC[C@H]3C)c(F)c2)CCN1C1CC2(CCN(c3ccc(C(=O)NS(=O)(=O)c4ccc(NC[C@H]5CC[C@](C)(O)CC5)c([N+](=O)[O-])c4)c(N4c5cc6cc[nH]c6nc5O[C@H]5COCC[C@@H]54)c3)CC2)C1", "note": "[Example 155, 2-[(3R,8S)-2,5-dioxa-9,15,17-triazatetracyclo[8.7.0.0^{3,8}.0^{12,16}]heptadeca-1(10),11,13,16-tetraen-9-yl]-4-{2-[(2R)-4-({3-fluoro-4-[(3R)-3-methylmorpholin-4-yl]phenyl}methyl)-2-(2-methylphenyl)piperazin-1-yl]-7-azaspiro[3.5]nonan-7-yl}-N-[3-nitro-4-({[(1r,4r)-4-hydroxy-4-methylcyclohexyl]methyl}amino)benzenesulfonyl]benzamide]", "values": [
      {"measurement": "IC50", "result": 91.8, "unit": "nM"}
    ]},
    {"compound": "Cc1ccccc1[C@@H]1CN(CC2CCOCC2)CCN1C1CC2(CCN(c3ccc(C(=O)NS(=O)(=O)c4ccc(NC[C@H]5CC[C@](C)(O)CC5)c([N+](=O)[O-])c4)c(N4c5cc6cc[nH]c6nc5O[C@H]5COCC[C@@H]54)c3)CC2)C1", "note": "[Example 156, 2-[(3R,8S)-2,5-dioxa-9,15,17-triazatetracyclo[8.7.0.0^{3,8}.0^{12,16}]heptadeca-1(10),11,13,16-tetraen-9-yl]-4-{2-[(2R)-2-(2-methylphenyl)-4-(oxan-4-ylmethyl)piperazin-1-yl]-7-azaspiro[3.5]nonan-7-yl}-N-[3-nitro-4-({[(1r,4r)-4-hydroxy-4-methylcyclohexyl]methyl}amino)benzenesulfonyl]benzamide]", "values": [
      {"measurement": "IC50", "result": 12.2, "unit": "nM"}
    ]},
    {"compound": "COc1cc(CN2CCN(C3CC4(CCN(c5ccc(C(=O)NS(=O)(=O)c6ccc(NC[C@H]7CC[C@](C)(O)CC7)c([N+](=O)[O-])c6)c(N6c7cc8cc[nH]c8nc7O[C@H]7COCC[C@@H]76)c5)CC4)C3)[C@@H](c3ccccc3OC(C)C)C2)ccc1C1CC1", "note": "[Example 157, 4-(2-((S)-4-(4-cyclopropyl-3-methoxybenzyl)-2-(2-isopropoxyphenyl)piperazin-1-yl)-7-azaspiro[3.5]nonan-7-yl)-N-((4-((((1r,4r)-4-hydroxy-4-methylcyclohexyl)methyl)amino)-3-nitrophenyl)sulfonyl)-2-((5aS,9aR)-6,7,9,9a-tetrahydro-1H-pyrano[3,4-b]pyrrolo[3′,2′:5,6]pyrido[3,2-e][1,4]oxazin-5(5aH)-yl)benzamide]", "values": [
      {"measurement": "IC50", "result": 31.8, "unit": "nM"}
    ]},
    {"compound": "COc1ncc(CN2CCN(C3CC4(CCN(c5ccc(C(=O)NS(=O)(=O)c6ccc(NCC7CCC(C)(O)CC7)c([N+](=O)[O-])c6)c(N6c7cc8cc[nH]c8nc7O[C@H]7COCC[C@@H]76)c5)CC4)C3)[C@@H](c3ccccc3OC(C)C)C2)cc1C", "note": "(stereo partly drawn) [Example 158, N-((4-((((1r,4r)-4-hydroxy-4-methylcyclohexyl)methyl)amino)-3-nitrophenyl)sulfonyl)-4-(2-((S)-2-(2-isopropoxyphenyl)-4-((6-methoxy-5-methylpyridin-3-yl)methyl)piperazin-1-yl)-7-azaspiro[3.5]nonan-7-yl)-2-((5aS,9aR)-6,7,9,9a-tetrahydro-1H-pyrano[3,4-b]pyrrolo[3′,2′:5,6]pyrido[3,2-e][1,4]oxazin-5(5aH)-yl)benzamide]", "values": [
      {"measurement": "IC50", "result": 21.2, "unit": "nM"}
    ]}
  ]
}
